The values that follow come from patent US11066414B2, “Cot modulators and methods of use thereof” (Gilead Sciences, Inc., priority 2015, dated 2021).

Where two headings read alike, the source gives them in different places.

One experiment deals with TNFα. Put plainly: Cot Monocyte TNFα Cell Based Assay.
For a further experiment, the target named is Human Cot (Homo sapiens (Human), UniProt P41279). Put plainly: High Throughput Cot Biochemical Assay. The note with it: Cot HTRF (TR-FRET) biochemical assay.
Sequence of Human Cot (P41279 30-397): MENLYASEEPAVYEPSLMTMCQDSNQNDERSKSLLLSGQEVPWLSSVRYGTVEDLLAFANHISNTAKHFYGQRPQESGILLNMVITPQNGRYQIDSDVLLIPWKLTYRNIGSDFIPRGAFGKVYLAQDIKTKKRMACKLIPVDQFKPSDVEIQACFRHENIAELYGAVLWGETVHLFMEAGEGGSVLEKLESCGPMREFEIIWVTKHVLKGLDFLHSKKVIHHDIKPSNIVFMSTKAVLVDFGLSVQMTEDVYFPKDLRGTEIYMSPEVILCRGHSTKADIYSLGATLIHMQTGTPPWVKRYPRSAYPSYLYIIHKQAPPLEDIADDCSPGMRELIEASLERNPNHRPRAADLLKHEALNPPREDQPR
The mark [1] stands for this setting: Homo sapiens, Monocyte, read-out: EC50 TNF, LPS-stimulated human monocytes, TNFα.
Where [2] appears, read: read-out: EC50 TNF, LPS-stimulated human monocytes, TNFα.

As for `[2H]C(Nc1cc(Cl)c2ncc(C#N)c(NCC(C)(C)C)c2c1)(c1cn(C2CC2)nn1)c1ccc(F)nc1F` (centres unmarked) [Example 103, 8-chloro-6-(((1-cyclopropyl-1H-1,2,3-triazol-4-yl)(2,6-difluoropyridin-3-yl)methyl-d)amino)-4-(neopentylamino)quinoline-3-carbonitrile], the EC50 in the experiment on TNFα (setting [1]) is 133 nM. 3 nM corresponded to half-maximal inhibition against Human Cot (IC50 HTRF) (IC50).

With `[2H][C@@](Nc1cc(Cl)c2ncc(C#N)c(NCC(C)(C)C)c2c1)(c1cn(C2CC2)nn1)c1cccnc1F` [Example 104, (S)-8-chloro-6-(((1-cyclopropyl-1H-1,2,3-triazol-4-yl)(2-fluoropyridin-3-yl)methyl-d)amino)-4-(neopentyl-amino)quinoline-3-carbonitrile], the EC50 with TNFα (setting [1]) was 99 nM. Also, the IC50 on Human Cot (IC50 HTRF) came out at 1 nM.

Turning to `[2H][C@@](Nc1cc(Cl)c2ncc(C#N)c(N[C@H](CC)c3ccccc3)c2c1)(c1cn(C2CC2)nn1)c1cccnc1F` [Example 105, 8-chloro-6-(((S)-(1-cyclopropyl-1H-1,2,3-triazol-4-yl)(2-fluoropyridin-3-yl)methyl-d)amino)-4-(((R)-1-phenylpropyl)amino)quinoline-3-carbonitrile], in the experiment on TNFα (setting [1]), the EC50 was 144 nM. Besides, the concentration for half-maximal inhibition (IC50) against Human Cot (IC50 HTRF) is 3 nM.

Regarding `[2H]C([2H])([2H])C([2H])([2H])[C@@H](Nc1c(C#N)cnc2c(Cl)cc(N[C@@]([2H])(c3ccc(F)nc3)c3cn(C4CC4)nn3)cc12)c1ccccc1` [Example 106, 8-chloro-6-(((S)-(1-cyclopropyl-1H-1,2,3-triazol-4-yl)(6-fluoropyridin-3-yl)methyl-d)amino)-4-(((R)-1-phenylpropyl-2,2,3,3,3-d5)amino)-quinoline-3-carbonitrile], in the experiment with TNFα (setting [1]), the EC50 worked out at 76 nM. This compound also gave an IC50 on Human Cot (IC50 HTRF) of 2 nM.

For the compound `[2H]C([2H])([2H])C([2H])([2H])[C@H](Nc1c(C#N)cnc2c(Cl)cc(N[C@@]([2H])(c3ccc(F)nc3)c3cn(C4CC4)nn3)cc12)c1ccccc1` [Example 107, 8-chloro-6-(((S)-(1-cyclopropyl-1H-1,2,3-triazol-4-yl)(6-fluoropyridin-3-yl)methyl-d)amino)-4-(((S)-1-phenyl-propyl-2,2,3,3,3-d5)amino)quinoline-3-carbonitrile], the EC50 in the experiment on TNFα (setting [1]) was over 10000 nM. Half-maximal inhibition on Human Cot (IC50 HTRF) (IC50) was put at 182 nM.

On to `[2H]C([2H])([2H])C([2H])([2H])[C@@H](Nc1c(C#N)cnc2c(Cl)cc(N[C@]([2H])(c3ccc(F)nc3)c3cn(C4CC4)nn3)cc12)c1ccccc1` [Example 108, 8-chloro-6-(((R)-(1-cyclopropyl-1H-1,2,3-triazol-4-yl)(6-fluoropyridin-3-yl)methyl-d)amino)-4-(((R)-1-phenyl-propyl-2,2,3,3,3-d5)amino)quinoline-3-carbonitrile], for which the EC50 in the experiment on TNFα (setting [1]) was over 10000 nM. Besides, the IC50 on Human Cot (IC50 HTRF) worked out at 913 nM.

For the compound `[2H]C([2H])([2H])C([2H])([2H])[C@@]([2H])(Nc1c(C#N)cnc2c(Cl)cc(N[C@@]([2H])(c3ccc(F)nc3)c3cn(C4CC4)nn3)cc12)c1ccccc1` [Example 109, 8-chloro-6-(((S)-(1-cyclopropyl-1H-1,2,3-triazol-4-yl)(6-fluoropyridin-3-yl)methyl-d)amino)-4-(((R)-1-phenylpropyl-1,2,2,3,3,3-d6)amino)quinoline-3-carbonitrile], in the experiment with TNFα (setting [1]), the 50% effective concentration (EC50) stood at 54 nM. For the same compound, at Human Cot (IC50 HTRF), the IC50 is 2 nM.

For `[2H]C(Nc1cc(Cl)c2ncc(C#N)c(NCC(C)(C)C)c2c1)(c1cn(C2CC2)nn1)c1cc(F)cnc1C` (centres unmarked) [Example 114, 8-chloro-6-(((1-cyclopropyl-1H-1,2,3-triazol-4-yl)(5-fluoro-2-methylpyridin-3-yl)methyl-d)amino)-4-(neopentylamino)quinoline-3-carbonitrile], in the experiment with TNFα (setting [1]), the EC50 stood at 233 nM. In addition, the concentration for half-maximal inhibition (IC50) against Human Cot (IC50 HTRF) came out at 10 nM.

With `[2H]C([2H])([2H])C([2H])([2H])C(Nc1c(C#N)cnc2c(Cl)cc(N[C@@]([2H])(c3ccc(F)nc3)c3cn(C4CC4)nn3)cc12)c1ccccc1` (stereo partly drawn) [Example 115, 8-chloro-6-(((S)-(1-cyclopropyl-1H-1,2,3-triazol-4-yl)(6-fluoropyridin-3-yl)methyl-d)amino)-4-((1-phenylpropyl-2,2,3,3,3-d5)amino)quinoline-3-carbonitrile], the EC50 with TNFα (setting [1]) was found to be 119 nM. For the same compound, half-maximal inhibition on Human Cot (IC50 HTRF) (IC50) required 5 nM.

For the compound `[2H][C@](Nc1cc(C#N)c2ncc(C#N)c(NCC(C)(C)C)c2c1)(c1ccc(F)nc1)c1cn(C2CC2)nn1` [Example 116, (S)-6-(((1-cyclopropyl-1H-1,2,3-triazol-4-yl)(6-fluoropyridin-3-yl)methyl-d)amino)-4-(neopentylamino)quinoline-3,8-dicarbonitrile], the concentration giving a half-maximal response (EC50) in the experiment on TNFα (setting [1]) came to 144 nM. For the same compound, the IC50 on Human Cot (IC50 HTRF) stood at 3 nM.

In the case of `[2H][C@](Nc1cc(C#N)c2ncc(C#N)c(N[C@H](CC)c3ccccc3)c2c1)(c1ccc(F)nc1)c1cn(C2CC2)nn1` [Example 117, 6-(((S)-(-cyclopropyl-1H-1,2,3-triazol-4-yl)(6-fluoropyridin-3-yl)methyl-d)amino)-4-(((R)-1-phenylpropyl)amino)quinoline-3,8-dicarbonitrile], the EC50 with TNFα (setting [1]) amounted to 94 nM. For the same compound, half-maximal inhibition against Human Cot (IC50 HTRF) (IC50) required 3 nM.

Consider `[2H][C@](Nc1cc(Cl)c2ncc(C#N)c(N[C@H](CC)c3ccccc3)c2c1)(c1ccc(F)nc1)c1cn(C(C)(C)C)nn1` [Example 118, 6-(((S)-(1-(tert-butyl)-1H-1,2,3-triazol-4-yl)(6-fluoropyridin-3-yl)methyl-d)amino)-8-chloro-4-(((R)-1-phenylpropyl)amino)quinoline-3-carbonitrile], for which, in the experiment on TNFα (setting [1]), the 50% effective concentration (EC50) was found to be 150 nM. For the same compound, half-maximal inhibition at Human Cot (IC50 HTRF) (IC50) was put at 6 nM.

Take `CC[C@@H](Nc1c(C#N)cnc2c(F)cc(N[C@@H](c3ccc(F)nc3)c3cn(C4CC4)nn3)cc12)c1ccccc1` [Example 120, 6-(((S)-(-cyclopropyl-1H-1,2,3-triazol-4-yl)(6-fluoropyridin-3-yl)methyl-d)amino)-8-fluoro-4-(((R)-1-phenylpropyl)amino)quinolme-3-carbonitrile]: the 50% effective concentration (EC50) with TNFα (setting [2]) is 137 nM. In addition, at Human Cot (read-out: IC50 HTRF), the IC50 was 5 nM.

For the compound `[2H]C(Nc1cc(Cl)c2ncc(C#N)c(N[C@H](CCO)c3ccccc3)c2c1)(c1ccc(F)nc1)c1cn(C2CC2)nn1` (stereo partly drawn) [Example 121, 8-chloro-6-(((1-cyclopropyl-1H-1,2,3-triazol-4-yl)(6-fluoropyridin-3-yl)methyl-d)amino)-4-(((R)-3-hydroxy-1-phenylpropyl)amino)quinoline-3-carbonitrile], the EC50 with TNFα (setting [1]) stood at 171 nM. This compound registered an IC50 at Human Cot (IC50 HTRF) of 7 nM.

For the compound `[2H]C(Nc1cc(Cl)c2ncc(C#N)c(N[C@H](CC)c3ccccc3)c2c1)(c1cn(C2CC2)nn1)c1ccc(Cl)nc1C` (stereo partly drawn) [Example 122, 8-chloro-6-(((6-chloro-2-methylpyridin-3-yl)(1-cyclopropyl-1H-1,2,3-triazol-4-yl)methyl-d)amino)-4-(((R)-1-phenylpropyl)amino)quinoline-3-carbonitrile], in the experiment with TNFα (setting [1]), the 50% effective concentration (EC50) stood at 240 nM. In addition, inhibition on Human Cot (IC50 HTRF) was half-maximal at 6 nM (IC50).

In the case of `[2H]C(Nc1cc(Cl)c2ncc(C#N)c(N[C@H](CC)c3ccccc3)c2c1)(c1cn(C2CC2)nn1)c1cc(C#N)cs1` (stereo partly drawn) [Example 123, 8-chloro-6-(((4-cyanothiophen-2-yl)(1-cyclopropyl-1H-1,2,3-triazol-4-yl)methyl-d)amino)-4-(((R)-1-phenylpropyl)amino)quinoline-3-carbonitrile], the EC50 in the experiment on TNFα (setting [1]) was 193 nM. In addition, the IC50 against Human Cot (IC50 HTRF) turned out to be 6 nM.

Consider `CC[C@@H](Nc1c(C#N)cnc2c(Cl)cc(NC(c3cn(C4CC4)nn3)c3cccnc3Cl)cc12)c1ccccc1` (stereo partly drawn) [Example 124, 8-chloro-6-(((2-chloropyridin-3-yl)(1-cyclopropyl-1H-1,2,3-triazol-4-yl)methyl-d)amino)-4-(((R)-1-phenylpropyl)amino)quinolme-3-carbonitrile], for which the EC50 in the experiment on TNFα (setting [2]) is 376 nM. Moreover, the concentration for half-maximal inhibition (IC50) on Human Cot (read-out: IC50 HTRF) amounted to 8 nM.

On to `[2H]C(Nc1cc(Cl)c2ncc(C#N)c(NCC(C)(C)C)c2c1)(c1cn(C2CC2)nn1)c1ccc(Cl)nc1C` (centres unmarked) [Example 125, 8-chloro-6-(((6-chloro-2-methylpyridin-3-yl)(1-cyclopropyl-1H-1,2,3-triazol-4-yl)methyl-d)amino)-4-(neopentylamino)quinoline-3-carbonitrile], for which the EC50 in the experiment on TNFα (setting [1]) was determined as 78 nM. Further, on Human Cot (IC50 HTRF), it took 3 nM to reach half-maximal inhibition (IC50).

`[2H]C(Nc1cc(Cl)c2ncc(C#N)c(NCC(C)(C)C)c2c1)(c1cn(C2CC2)nn1)c1cccnc1Cl` (centres unmarked) [Example 126, 8-chloro-6-(((2-chloropyridin-3-yl)(1-cyclopropyl-1H-1,2,3-triazol-4-yl)methyl-d)amino)-4-(neopentylamino)quinoline-3-carbonitrile]: in the experiment with TNFα (setting [1]), the concentration for a half-maximal effect (EC50) was determined as 146 nM. For the same compound, at Human Cot (IC50 HTRF), the IC50 came to 3 nM.

`[2H][C@](Nc1cc(Cl)c2ncc(C#N)c(Nc3c(F)ccc(Cl)c3F)c2c1)(c1ccc(F)nc1)c1cn(C2CC2)nn1` [Example 127, (S)-8-chloro-4-((3-chloro-2,6-difluorophenyl)amino)-6-(((1-cyclopropyl-1H-1,2,3-triazol-4-yl)(6-fluoropyridin-3-yl)methyl-d)amino)quinoline-3-carbonitrile]: in the experiment with TNFα (setting [1]), the EC50 turned out to be 194 nM. Moreover, the IC50 at Human Cot (IC50 HTRF) is 16 nM.

Regarding `[2H][C@](Nc1cc(Cl)c2ncc(C#N)c(N[C@@H](CC#N)c3ccccc3)c2c1)(c1ccc(F)nc1)c1cn(C2CC2)nn1` [Example 128, 8-chloro-4-(((S)-2-cyano-1-phenylethyl)amino)-6-(((S)-(1-cyclopropyl-1H-1,2,3-triazol-4-yl)(6-fluoropyridin-3-yl)methyl-d)amino)quinoline-3-carbonitrile], the EC50 in the experiment with TNFα (setting [1]) is over 10000 nM. The half-inhibitory concentration (IC50) against Human Cot (IC50 HTRF) came out at 698 nM.

`[2H][C@](Nc1cc(Cl)c2ncc(C#N)c(N[C@H](CC#N)c3ccccc3)c2c1)(c1ccc(F)nc1)c1cn(C2CC2)nn1` [Example 129, 8-chloro-4-(((R)-2-cyano-1-phenylethyl)amino)-6-(((S)-(1-cyclopropyl-1H-1,2,3-triazol-4-yl)(6-fluoropyridin-3-yl)methyl-d)amino)quinoline-3-carbonitrile]: the half-maximal effective concentration (EC50) in the experiment on TNFα (setting [1]) amounted to 81 nM. Further, at Human Cot (IC50 HTRF), the IC50 worked out at 2 nM.
